From patent US20060084695A1, “Compositions and treatments for inhibiting kinase and/or HMG-CoA reductase” (priority 2004, published 2006)

Test system: oxazolone-induced mouse ear swelling
Assay: Inhibition of oxazolone-induced mouse ear swelling (topical inflammation model)
Format: in vivo, BALB/c male mice
Conditions: observations made from Table II
Description: Left ears were untreated. The thickness of both ears of each animal was measured with a Dyer model micrometer gauge 24 hours after oxazolone challenge, and the net increase in thickness of right ears versus left ears was calculated for each animal. Percent inhibition was calculated according to the formula: [(Iv−It)/Iv]×100, where Iv and It respectively refer to the average net increase in right ear thickness (mm) for vehicle and candidate compound treated mice.

## CC(C)c1c(C(=O)Nc2ccccc2)c(-c2ccccc2)c(-c2ccc(F)cc2)n1CC[C@@H]1C[C@@H](O)CC(=O)O1 [Atorvastatin lactone, atorvastatin lactone]
  anti-inflammatory activity in ear swelling assay, comparison in words: most potent anti-inflammatory activity
